In US7078428B2, “Isoindolone derivatives, preparation process and intermediates of this process, their use as medicaments, and pharmaceutical compositions comprising them” (Sanofi-Aventis Deutschland GmbH, priority 2002, dated 2006):

Tests used:
NHE1 = molecular target: T1, NHE1 (Homo sapiens, UniProt P19634); assay: NHE inhibition FLIPR test (intracellular pH recovery, BCECF) in transfected LAP-1 cells; format: cell-based; conditions: transfected cell line (parental LAP-1) expressing the NHE-1 subtype, pHi recovery after acidification
T1 construct: expressed in transfected cells
Procedure: The NHE inhibitory activities (IC50 values) of the compounds according to the invention were determined by a FLIPR test.
The test is performed in the FLIPR (Fluorescent Imaging Plate Reader) equipped with clear-bottomed and black-walled 96-well microtitration plates.
The growth medium for the transfected cells (Iscove +10% foetal calf serum) also comprises G418 as selection antibiotic to ensure the presence of transfected sequences.
The actual test begins by eliminating the growth medium and adding 100 μl of loading buffer per well (5 μM of BCECF-AM [2′,7′-bis(2-carboxyethyl)-5-(6)-carboxyfluoresceine acetoxymethyl ester] in 20 mM of NH4Cl, 115 mM of choline chloride, 1 mM of CaCl2, 5 mM of KCl, 20 mM of HEPES and 5 mM of glucose; pH 7.4 (adjusted with KOH). The cells are then incubated for 20 minutes at 37° C. This incubation results in the loading of the fluorescent dye into the cells, the fluorescence intensity of which depends on the pHi, and on the NH4Cl, which results in a slight basification of the cells.
The precursor BCECF-AM, a non-fluorescent dye, is, as an ester, capable of crossing the membrane. The actual dye, which is incapable of crossing the membrane, is released inside the cell by esterases.
After this 20-minute incubation, the loading buffer, which comprises NH4Cl and free BCECF-AM, is removed by washing three times in the cell washing device (Tecan Columbus), each wash being performed with 400 μl of washing buffer (133.8 mM of choline chloride, 4.7 mM of KCl, 1.25 mM of MgCl2, 1.25 mM of CaCl2, 0.97 mM of K2HPO4, 0.23 mM of KH2PO4, 5 mM of HEPES and 5 mM of glucose; pH 7.4 (adjusted with KOH)). The residual volume remaining in the wells is 90 μl (possibly between 50 and 125 μl). This washing step removes the free BCECF-AM and results in an intracellular acidification (pHi of 6.3-6.4) due to the removal of the external ammonium ions.
As the equilibrium of the intracellular ammonium with the aqueous ammonia and the protons, by removal of the extracellular ammonium and by the subsequent immediate crossing of the aqueous ammonia across the cell membrane, is disrupted, the washing process results in intracellular protons remaining, which is the cause of the intracellular acidification. This acidification can result finally in the death of the cells if it lasts long enough. It is important here for the washing buffer to be free of sodium (<1 mM), otherwise the extracellular sodium ions would result in an immediate increase in the pHi on account of the activity of the cloned NHE isoforms. It is also important for all the buffers used (loading buffer, washing buffer and regeneration buffer) not to contain any HCO3-ions, otherwise the presence of bicarbonate would result in the activation of bicarbonate-dependent systems that disrupt the pHi regulation, which systems are contained in the LAP-1 parental cell line.
The microtiter plates containing acidified cells are then transferred (up to 20 minutes after the acidification) to the FLIPR. In the FLIPR, the intracellular fluorescent dye is activated with light of a wavelength of 488 nm, which is generated by an argon laser, and the measuring parameters (laser power, illumination time and diaphragm of the […] camera integrated into the FLIPR) are chosen such that the average value of the fluorescent signal per well is between 30,000 and 35,000 relative fluorescence units.
The actual measurement in the FLIPR starts with a photograph being taken by the CCD camera every two seconds under software control. After 10 seconds, the increase in the intracellular pH is initiated by adding 90 μl of regeneration buffer (133.8 mM of NaCl, 4.7 mM of KCl, 1.25 mM of MgCl2, 1.25 mM of CaCl2, 0.97 mM of K2HPO4, 0.23 mM of KH2PO4, 10 mM of HEPES and 5 mM of glucose; pH 7.4 (adjusted with NaOH)) using a 96-well pipette device incorporated into the FLIPR. Some wells, to which is added pure regeneration buffer, serve as positive controls (100% NHE activity). […]

T1 sequence (P19634 whole entry, species assumed): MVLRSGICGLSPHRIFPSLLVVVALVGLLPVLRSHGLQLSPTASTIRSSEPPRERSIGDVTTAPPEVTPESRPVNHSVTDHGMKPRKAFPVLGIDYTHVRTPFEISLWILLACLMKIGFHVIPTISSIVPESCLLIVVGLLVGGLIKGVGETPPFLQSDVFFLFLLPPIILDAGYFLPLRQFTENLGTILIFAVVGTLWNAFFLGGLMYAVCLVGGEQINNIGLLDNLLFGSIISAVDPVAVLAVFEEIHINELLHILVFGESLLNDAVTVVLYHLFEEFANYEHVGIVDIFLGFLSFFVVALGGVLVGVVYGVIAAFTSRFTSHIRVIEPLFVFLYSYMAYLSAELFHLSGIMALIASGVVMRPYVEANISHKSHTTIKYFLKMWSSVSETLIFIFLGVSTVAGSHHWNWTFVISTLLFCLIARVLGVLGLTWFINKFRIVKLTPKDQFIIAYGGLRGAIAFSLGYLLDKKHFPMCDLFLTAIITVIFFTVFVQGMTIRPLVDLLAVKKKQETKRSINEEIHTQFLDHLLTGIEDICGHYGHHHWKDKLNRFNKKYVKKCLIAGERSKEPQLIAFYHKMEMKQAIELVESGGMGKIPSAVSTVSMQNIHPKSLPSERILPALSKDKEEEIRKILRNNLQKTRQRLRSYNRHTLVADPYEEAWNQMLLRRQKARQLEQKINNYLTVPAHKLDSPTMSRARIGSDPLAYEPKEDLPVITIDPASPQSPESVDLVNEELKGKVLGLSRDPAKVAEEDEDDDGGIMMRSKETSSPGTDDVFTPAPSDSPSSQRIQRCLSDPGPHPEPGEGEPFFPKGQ

SMILES | IC50 (NHE1) | melting point
CCN1C(=O)c2ccccc2C1CC(=O)N=C(N)N (stereo not drawn) [Example 6, N-[2-(2-Ethyl-3-oxo-2,3-dihydro-1H-isoindol-1-yl)acetyl]guanidine] | 211 nM | 223 °C
NC(N)=NC(=O)CC1c2ccccc2C(=O)N1CC1CC1 (stereo not drawn) [Example 8, N-[2-(2-Cyclopropylmethyl-3-oxo-2,3-dihydro-1H-isoindol-1-yl)acetyl]guanidine] | 63 nM | 229 °C
CC(C)CN1C(=O)c2ccc(C(C)(C)C)cc2C1CC(=O)N=C(N)N (stereo not drawn) [Example 10, N-[2-(6-tert-Butyl-2-isobutyl-3-oxo-2,3-dihydro-1H-isoindol-1-yl)acetyl]guanidine] | 15 nM | 214 to 215 °C
CC(C)CN1C(=O)c2cc(C(C)(C)C)ccc2C1CC(=O)N=C(N)N (stereo not drawn) [Example 11, N-[2-(5-tert-Butyl-2-isobutyl-3-oxo-2,3-dihydro-1H-isoindol-1-yl)acetyl]guanidine] | 11 nM | 262 to 263 °C
CC(C)CN1C(=O)c2cc(C(F)(F)F)ccc2C1CC(=O)N=C(N)N (stereo not drawn) [Example 14, N-[2-(2-Isobutyl-3-oxo-5-trifluoromethyl-2,3-dihydro-1H-isoindol-1-yl)-acetyl]-guanidine] | 102 nM | 224 °C
CC(C)CN1C(=O)c2ccc(C(F)(F)F)cc2C1CC(=O)N=C(N)N (stereo not drawn) [Example 15, N-[2-(2-Isobutyl-3-oxo-6-trifluoromethyl-2,3-dihydro-1H-isoindol-1-yl)-acetyl]guanidine] | 16 nM | 154 °C
CC(C)CN1C(=O)c2cc(Cl)c(Cl)cc2C1CC(=O)N=C(N)N (stereo not drawn) [Example 18, N-[2-(5,6-Dichloro-2-isobutyl-3-oxo-2,3-dihydro-1H-isoindol-1-yl)acetyl]guanidine] | 26 nM | 154 °C
CC(C)CN1C(=O)c2c(F)ccc(F)c2C1CC(=O)N=C(N)N (stereo not drawn) [Example 19, N-[2-(4,7-Difluoro-2-isobutyl-3-oxo-2,3-dihydro-1H-isoindol-1-yl)acetyl]guanidine] | 11 nM | 212 °C
Cc1ccc2c(c1)C(=O)N(CC(C)C)C2CC(=O)N=C(N)N (stereo not drawn) [Example 34, N-[2-(2-Isobutyl-5-methyl-3-oxo-2,3-dihydro-1H-isoindol-1-yl)acetyl]guanidine] | 25 nM | 266 °C
